Each structure is given as a SMILES string. Like-named read-outs stand apart in the source and are kept apart here.

In data set [1] the test system is HIV-1. The note with it: for HIV-1 p24 production reduced by: PBMC. As to the method:
Primary cell experiments were approved by the Ohio State University Institutional Review Board, protocol #2014H0001. Peripheral blood mononuclear cells (PBMC) were isolated from healthy donor by Ficoll-Paque centrifugation, stimulated in complete RPMI 1640 medium (Gibco, Carlsbad, Calif.) containing 10% FBS, 100 μg/mL penicillin/streptomycin and supplemented with 5 μg/mL phytohemaglutinin (PHA; Gibco) for 48 h, and maintained thereafter in complete RPMI medium supplemented with 20U/mL of interleukin-2 (Gibco). PBMCs were seeded in 24-well plate (2×10^5 cells/well) and triplicate wells were treated with 10 or 50 μM C75, HS-106, or with DMSO and subsequently infected with 10 ng/mL p24 equivalents of HIV-1LucR-T2A virus, which is derived from NL4-3 (Edmonds et al., 2010). Cells were washed 24 h post infection. Supernatants were collected 4 days post infection and p24 content analyzed by quantitative ELISA (Zeptometrix).

Data set [2] concerns HepG2 cells. Nature of the data set: HepG2 cell viability (Resazurin). The class given is cell-based. As to the method:
HepG2 cells were seeded in 96 well plates and after reaching 80% confluency, the cells were treated with different concentrations of HS-106 for 4 hours. At the end of the treatment time, 10 μl of 700 μM Resazurin (prepared with PBS) were added to each well. After 3 hours, the Resorufin fluorescence was measured at Ex/Em: 540/590 nm.
Background: Resazurin is reduced to fluorescent resorufin, in cell work by metabolically active cells.

Data set [3] deals with SKBR3 cells. Nature of the data set: Caspase 3/7 activity assay. Particulars: SKBR3, 24 hours. The class given is cell-based. As to the method: (§1) The assay was performed using a similar protocol to the one described by Fritz et al (Fritz et al., 2001). Cells were seeded at a density of 10,000 cells/well and treated with different concentrations of HS-106 or C75. After 24 hours, to each well, 50 μl of Caspase assay/lysis buffer (50 mM HEPES pH 7.5, 100 mM KCl, 5 mM EDTA, 10 mM MgC12, 10 mM CHAPS, 20% Sucrose, 10 mM DTT, 10 μM of (Z-DEVD)2-Rh110 (Santa Cruz Biotech) and complete protease inhibitor (Roche))was added. After 6 hours of incubation at 37° C., fluorescence was measured at Ex/Em: 485/535 nm.

In data set [4] the test system is BT474 cells. Nature of the data set: Caspase 3/7 activity assay. The class given is cell-based. Particulars: BT474, 24 hours. As to the method:
as §1

Data set [5] concerns BT474 cells. Nature of the data set: Acetate and glucose incorporation into lipids in HER2+ BT474 breast cancer cell line. The class given is cell-based. Particulars: Homo sapiens. On the procedure:
Incorporation of radiolabeled glucose or acetate in total lipids was measured according to published methods (Haystead and Hardie, 1986). HepG2 cells (80% confluent in 12 wells plates) were starved overnight in MEM Alpha, the medium was then changed with DMEM medium containing 0.1 g/L glucose 10% FBS and 5 μM insulin and 1 μCi 3-[^3H] D-glucose or 1 μCi [^3H]-acetate in addition to different concentrations of each compound. After incubation for 1 hour at 37° C., 5% CO2, the cells were washed with ice cold PBS and detached by treating with 100 μl trypsin for 10 min then 1 ml of ice cold PBS was added. The cells suspension was then sonicated for 3 times in 30 seconds intervals and kept on ice. From each well 1 ml of cell lysate was added to a 4 ml scintillation vial and 2 ml of MicroScint-E was added. The vials were mixed thoroughly then centrifuged for 30 min at 3000 rpm and the ^3H radioactivity was measured by liquid scintillation counting.
T474 cells were seeded in 6 well plates in 10% FBS 4.5 g/L glucose DMEM at a density of 400,000 cells/well. After 24 hours the media was changed with 0.1 g/L glucose DMEM containing different concentrations of HS-106. […] To each fraction, 1 ml of 25 g/L Butyl PBD dissolved in Toluene was added and radioactivity was measured by scintillation counting.

Data set [6] has as its system HIV-1. The class given is cell-based. As to the method: (A) TZM-bl cells were transfected with pNL4-3 provirus plasmid for 48 h in the presence or absence of 10 μM Fasnall or C75 or DMSO (0.01%). Intracellular expression of HIV-1 proteins was monitored by HIVIG-western blot, and β-actin was used as loading control. (B) Supernatant associated virion production was monitored using a p24 ELISA. (C) 48 hours post-transfection, cell culture supernatants were removed and incubated with fresh TZM-bl (indicator) cells for an additional 48 hrs. Values expressed as the mean±standard deviation, and are representative of three independent experiments. p-values were generated with student's t-test. Molecular weight markers (kD) indicated in right margin.
To test further the hypothesis that HIV-1 replication requires FASN activity during the late stages of viral replication, TZM-bl or SupT1 (data not shown) cells were transfected with a HIV-1 provirus (pNL43) in the presence or absence of Fasnall or C75. […] Thus, FASN inhibition reduces nascent HIV-1 virion production without reducing HIV-1 protein synthesis.

Data set [7] relates to ATP binding proteins of BT474 cells lysate. Nature of the data set: Elution of ATP Sepharose loaded with BT474 cells lysate. Particulars: 1, 2.5, 5 and 10 mM. On the procedure:
FIGS. 13A-13D illustrate the characterization of purified FASN and Fasnall elution of ATP Sepharose. […] Lane 6 and 7 are 10 mM Staurosporine and 50 mM ATP, respectively, as positive controls.

Take `Cc1sc2ncnc(NC3CCN(Cc4ccccc4)C3)c2c1C` (racemic) [HS-106, N-(1-benzylpyrrolidin-3-yI)-5,6-dimethylthieno[2,3-d]pyrimidin-4-amine]: the “HIV-1 p24 production reduced by” value in data set [1] (10 μM) stood at 87%; in data set [1] (50 μM), 96%. Moreover, in data set [1] (primary PBMCs, 10 μM), the “reduction of HIV-1 p24 production” value is recorded as “approximately 10 fold”. In addition, in data set [2], the HepG2 cell viability entry is listed as “without affecting the cell viability”. Besides, the “caspase activity relative to MCF10A cells” value is 2 fold in data set [3] and 10 fold in data set [4]. The IC50 in data set [5] (BT-474, acetate as tracer, read-out: IC50, acetate incorporation into total lipids) is approximately 1.5 µM; in data set [5] (BT-474, glucose as tracer, read-out: IC50, glucose incorporation into total lipids), 1.66 µM. Further, the “HIV-1 p24 particle deposition into culture medium” value in data set [6] (TZM-bl, 10 μM, 48 h) is on record as “significantly reduce HIV-1 p24 particle deposition into culture medium”. Besides, in data set [6] (TZM-bl, 10 μM, 48 h), the “intracellular Gag levels” value was “did not reduce intracellular Gag levels”. In data set [6] (supernatants on fresh TZM-bl indicator cells), the “number of infectious HIV-1 particles” value is “similarly reduced the number of infectious HIV-1 particles”. In data set [7], the “elution of proteins from ATP Sepharose” value is recorded as “does not elute any proteins more than DMSO”.

Values taken from US11679111B2, “Fatty acid synthase inhibitors” (priority 2016, dated 2023).
